The values that follow are results of earlier work, collected in patent publication US20110020841A1, “CENTROSOME AMPLIFICATION AS A BIOSENSOR FOR DNA DAMAGE” (National University of Ireland, Galway, priority 2006, published 2011).

For this data set, the system named is Chk1 kinase. To be noted: inhibition of Chk1 kinase with the drug; vertebrate cells; reference 11.

On to `CN[C@@H]1C[C@H]2O[C@@](C)([C@@H]1OC)n1c3ccccc3c3c4c(c5c6ccccc6n2c5c31)C(=O)N[C@@H]4O` [UCN-01], for which the “DNA damage-induced centrosome amplification” value is reported as “suppresses DNA damage-centrosome amplification”.
